Assay [1] relates to 3T3-L1. The assay is described as follows: Antiproliferative activity against mouse 3T3L1 cells after 48 hrs by MTT assay. The class given is functional. More on the design: concentration or dose not given beside the values. Background: Tetrazolium assays rely on reduction of a dye to a coloured formazan, in cell work by metabolically active cells.
Assay [2] relates to 3T3-L1. The assay is described as follows: Inhibition of adipogenesis in mouse 3T3L1 cells at 100 umol/L after 8 days by Oil red O-staining. It counts as functional. Particulars: 3T3-L1, 192 h.
The subject of assay [3] is 3T3-L1. The assay is described as follows: Glucose consumption in differentiated mouse 3T3L1 cells in low-glucose medium at 50 ug/ml after 24 hrs by glucose-oxidase method (Rvb =2.41 +/- 0.22 mmol/L). It counts as functional.
The subject of assay [4] is 3T3-L1. The assay is described as follows: Glucose consumption in differentiated mouse 3T3L1 cells in low-glucose medium after 24 hrs by glucose-oxidase method. It counts as functional, cell-based.
Assay [5] deals with 3T3-L1. The assay is described as follows: Glucose consumption in differentiated mouse 3T3L1 cells in high-glucose medium at 100 ug/ml after 24 hrs by glucose-oxidase method (Rvb =3.12 +/- 0.32 mmol/L). It counts as functional.
Assay [6] relates to 3T3-L1. The assay is described as follows: Glucose consumption in differentiated mouse 3T3L1 cells in low-glucose medium at 100 ug/ml after 24 hrs by glucose-oxidase method (Rvb =2.35 +/- 0.19 mmol/L). It counts as functional.
Assay [7] relates to 3T3-L1. The assay is described as follows: Glucose consumption in differentiated mouse 3T3L1 cells in high-glucose medium after 24 hrs by glucose-oxidase method. It counts as functional, cell-based.
Assay [8] relates to 3T3-L1. The assay is described as follows: Glucose consumption in differentiated mouse 3T3L1 cells in high-glucose medium at 50 ug/ml after 24 hrs by glucose-oxidase method (Rvb =3.06 +/- 0.29 mmol/L). It counts as functional.

As to `C=CCCCCCCCCC(=O)Oc1ccc2c(c1)C(=O)/C(=C/c1cccc(OC)c1)O2`, in the assay on 3T3-L1 [1], the Activity amounted to 0.21%.

Regarding `CCCCC/C=C\C=C\CCCCCCCCC(=O)Oc1ccc2c(c1)C(=O)/C(=C/c1cccc([N+](=O)[O-])c1)O2`, in the assay with 3T3-L1 [2], the inhibition (commonly the share of the control response that was lost under treatment) at 100 µM was determined as 15.1%. Besides, the Activity was -12.06% in the assay with 3T3-L1 [1]; 3.64 mmol/L in the assay on 3T3-L1 [3]; “Dose-dependent effect” in the assay on 3T3-L1 [4]; 4.95 mmol/L in the assay with 3T3-L1 [5]; 4.29 mmol/L with 3T3-L1 [6]; “Dose-dependent effect” in the assay with 3T3-L1 [7]. Further, the Activity in the assay on 3T3-L1 [8] was 4.21 mmol/L.

As to `CCCCCCCCCCCCCCCCCC(=O)Oc1ccc2c(=O)c(Cc3ccc(OC)cc3)coc2c1`, the inhibition at 100 µM in the assay with 3T3-L1 [2] came out at 1.95%. Also, the Activity in the assay with 3T3-L1 [1] is recorded as -31.87%.

With `CCCCCCCCCCCCCCCCCC(=O)Oc1ccc2c(c1)O/C(=C\c1ccc(OC)cc1)C2=O`, in the assay with 3T3-L1 [2], the inhibition at 100 µM was determined as 0%. Also, the Activity with 3T3-L1 [1] is 11.43%.

Turning to `CCCCCCCCCCCCCCCC(=O)Oc1ccc2c(c1)C(=O)/C(=C/c1cccc(OC)c1)O2`, the Activity with 3T3-L1 [1] is on record as -20.26%.

`CCCCCCCCCCCCCCCC(=O)Oc1ccc2c(c1)C(=O)/C(=C/c1ccc(OC)cc1)O2`: the Activity in the assay with 3T3-L1 [1] came out at 1.19%.

For the molecule `C=CCCCCCCCCC(=O)Oc1ccc2c(c1)C(=O)/C(=C/c1ccc(OC)c(OC)c1)O2`, the Activity with 3T3-L1 [1] was -22.17%.

Consider `CCCCCCCCCCCCCCCCCC(=O)Oc1ccc2c(c1)C(=O)/C(=C/c1cccc(OC)c1)O2`, for which the Activity in the assay with 3T3-L1 [1] was -10.94%.

For the molecule `CCCCCCCCCCCCCCCC(=O)Oc1ccc2c(c1)C(=O)/C(=C/c1ccc(F)cc1)O2`, in the assay with 3T3-L1 [1], the Activity is on record as -0.47%.

In turn, `CCCCCCCC/C=C\CCCCCCCC(=O)Oc1ccc2c(c1)C(=O)/C(=C/c1cccc(OC)c1)O2` showed an inhibition at 100 µM with 3T3-L1 [2] of 0%. Also, the Activity with 3T3-L1 [1] is recorded as -5.41%.

For `CCCCC/C=C\C=C\CCCCCCCCC(=O)Oc1ccc2c(c1)C(=O)/C(=C/c1cccc(Cl)c1)O2`, in the assay with 3T3-L1 [1], the Activity is given as -11.46%.

Take `CCCCC/C=C\C=C\CCCCCCCCC(=O)Oc1ccc2c(=O)c(Cc3ccc(OC)cc3)coc2c1`: the Activity with 3T3-L1 [1] is reported as -4.37%.

With `CCCCCCCCCCCCCCCCCC(=O)Oc1ccc2c(c1)C(=O)/C(=C/c1ccc(OC)cc1)O2`, the Activity with 3T3-L1 [1] is -10.93%.

Molecule `C=CCCCCCCCCC(=O)Oc1ccc2c(c1)C(=O)/C(=C/c1cccc(Cl)c1)O2` yielded an inhibition at 100 µM in the assay with 3T3-L1 [2] of 28.7%. Besides, the Activity in the assay on 3T3-L1 [1] is 57.4%; in the assay with 3T3-L1 [3], 2.88 mmol/L; with 3T3-L1 [4] it was “Dose-dependent effect”; with 3T3-L1 [5], 4.49 mmol/L; with 3T3-L1 [6], 3.56 mmol/L; in the assay with 3T3-L1 [7] it was “Dose-dependent effect”. In addition, the Activity with 3T3-L1 [8] amounted to 3.86 mmol/L.

For `CCCCC/C=C\C=C\CCCCCCCCC(=O)Oc1ccc2c(c1)C(=O)/C(=C/c1ccc(Br)cc1)O2`, the Activity in the assay on 3T3-L1 [1] is reported as 11.09%.

As to `CCCCCCCCCCCCCCCCCC(=O)Oc1ccc2c(c1)C(=O)/C(=C/c1ccc(F)cc1)O2`, the Activity in the assay with 3T3-L1 [1] is -9.45%.

Take `CCCCCCCCCCCCCCCCCC(=O)Oc1ccc2c(c1)C(=O)/C(=C/c1ccc(OC)c(OC)c1)O2`: the Activity in the assay on 3T3-L1 [1] is recorded as -3.84%.

`CCCCC/C=C\C=C\CCCCCCCCC(=O)Oc1ccc2c(c1)C(=O)/C(=C/c1cccc(OC)c1)O2`: in the assay on 3T3-L1 [1], the Activity came to 6.45%.

Regarding `CCCCCCCC/C=C\CCCCCCCC(=O)Oc1ccc2c(c1)C(=O)/C(=C/c1ccc(F)cc1)O2`, the inhibition at 100 µM in the assay on 3T3-L1 [2] came to 9.38%. Also, the Activity in the assay with 3T3-L1 [1] was 22.57%; in the assay on 3T3-L1 [3], 3.81 mmol/L; in the assay on 3T3-L1 [4] it was “Dose-dependent effect”; in the assay with 3T3-L1 [5], 4.82 mmol/L; in the assay with 3T3-L1 [6], 4.35 mmol/L; in the assay on 3T3-L1 [7] it was “Dose-dependent effect”. The Activity with 3T3-L1 [8] was found to be 4.07 mmol/L.

Turning to `CCCCCCCC/C=C\CCCCCCCC(=O)Oc1ccc2c(c1)C(=O)/C(=C/c1ccc(Br)cc1)O2`, the inhibition at 100 µM in the assay on 3T3-L1 [2] was 16.6%. Moreover, the Activity with 3T3-L1 [1] was -6.62%.

`CCCCCCCC/C=C\CCCCCCCC(=O)Oc1ccc2c(c1)C(=O)/C(=C/c1ccc(OC)c(OC)c1)O2` returned an inhibition at 100 µM in the assay with 3T3-L1 [2] of 0%. In the assay with 3T3-L1 [1], the Activity came out at 12.53%.

Consider `CCCCC/C=C\C=C\CCCCCCCCC(=O)Oc1ccc2c(c1)C(=O)/C(=C/c1ccc(OC)cc1)O2`, for which, in the assay with 3T3-L1 [2], the inhibition at 100 µM was 22.6%. Further, in the assay with 3T3-L1 [1], the Activity is given as -24.96%.

As for `C=CCCCCCCCCC(=O)Oc1ccc2c(c1)C(=O)/C(=C/c1ccc(F)cc1)O2`, in the assay on 3T3-L1 [2], the inhibition at 100 µM is 25.4%. In addition, the Activity is 16.67% with 3T3-L1 [1]; 4.41 mmol/L in the assay with 3T3-L1 [3]; “Dose-dependent effect” in the assay on 3T3-L1 [4]; 5.85 mmol/L in the assay on 3T3-L1 [5]; 5.45 mmol/L in the assay on 3T3-L1 [6]; “Dose-dependent effect” in the assay on 3T3-L1 [7]. For the same molecule, the Activity in the assay on 3T3-L1 [8] worked out at 5.16 mmol/L.

Turning to `CCc1ccc(CCOc2ccc(CC3SC(=O)NC3=O)cc2)nc1` (stereo not drawn) [PIOGLITAZONE], the Activity in the assay with 3T3-L1 [3] is 5.51 mmol/L; in the assay with 3T3-L1 [4] it was “Dose-dependent effect”; in the assay on 3T3-L1 [5], 8.15 mmol/L; with 3T3-L1 [6], 6.75 mmol/L; with 3T3-L1 [7], “Dose-dependent effect”; in the assay on 3T3-L1 [8], 7.36 mmol/L.

Consider `C=CCCCCCCCCC(=O)Oc1ccc2c(=O)c(Cc3ccc(OC)cc3)coc2c1`, for which the Activity with 3T3-L1 [1] is -17.45%.

Turning to `C=CCCCCCCCCC(=O)Oc1ccc2c(c1)O/C(=C\c1ccc(OC)cc1)C2=O`, in the assay with 3T3-L1 [1], the Activity is listed as -1.39%.

For the molecule `C=CCCCCCCCCC(=O)Oc1ccc2c(c1)C(=O)/C(=C/c1ccc(Br)cc1)O2`, the Activity in the assay with 3T3-L1 [1] was found to be 1.25%.

Take `CCCCCCCCCCCCCCCC(=O)Oc1ccc2c(c1)C(=O)/C(=C/c1ccc(OC)c(OC)c1)O2`: the Activity with 3T3-L1 [1] is given as -3.72%.

As for `C=CCCCCCCCCC(=O)Oc1ccc2c(c1)C(=O)/C(=C/c1cccc([N+](=O)[O-])c1)O2`, in the assay on 3T3-L1 [1], the Activity is -8.37%.

Molecule `CCCCCCCC/C=C\CCCCCCCC(=O)Oc1ccc2c(c1)C(=O)/C(=C/c1cccc(Cl)c1)O2` showed an inhibition at 100 µM with 3T3-L1 [2] of 0%. In addition, the Activity with 3T3-L1 [1] is 20.76%.

As to `CCCCCCCCCCCCCCCCCC(=O)Oc1ccc2c(c1)C(=O)/C(=C/c1ccc(Br)cc1)O2`, in the assay with 3T3-L1 [1], the Activity is listed as 5.02%.

For the molecule `CCCCC/C=C\C=C\CCCCCCCCC(=O)Oc1ccc2c(c1)C(=O)/C(=C/c1ccc(F)cc1)O2`, the inhibition at 100 µM with 3T3-L1 [2] amounted to 0%. The Activity in the assay on 3T3-L1 [1] was 14.2%.

Regarding `C=CCCCCCCCCC(=O)Oc1ccc2c(c1)C(=O)/C(=C/c1ccc(OC)cc1)O2`, the Activity in the assay with 3T3-L1 [1] was -2.09%.

On to `CCCCCCCCCCCCCCCCCC(=O)Oc1ccc2c(c1)C(=O)/C(=C/c1cccc([N+](=O)[O-])c1)O2`, for which, in the assay with 3T3-L1 [1], the Activity is recorded as -5.03%.

With `CCCCCCCCCCCCCCCCCC(=O)Oc1ccc2c(c1)C(=O)/C(=C/c1cccc(Cl)c1)O2`, the Activity in the assay with 3T3-L1 [1] is listed as -0.06%.

Regarding `CCCCCCCC/C=C\CCCCCCCC(=O)Oc1ccc2c(c1)C(=O)/C(=C/c1cccc([N+](=O)[O-])c1)O2`, the inhibition at 100 µM with 3T3-L1 [2] was 15.6%. The Activity in the assay with 3T3-L1 [1] is 17.55%; in the assay with 3T3-L1 [3] it was 2.93 mmol/L; in the assay on 3T3-L1 [5], 3.96 mmol/L; with 3T3-L1 [6], 3.47 mmol/L; with 3T3-L1 [8] it was 3.35 mmol/L.

For the molecule `CCCCCCCCCCCCCCCC(=O)Oc1ccc2c(c1)C(=O)/C(=C/c1ccc(Br)cc1)O2`, in the assay with 3T3-L1 [1], the Activity was 1.05%.
